Experiment: plasma stability
Assay type: in vitro ADME
Conditions: mouse, plasma (K2 EDTA)

Question: With CC1CC(OC(=O)C(O)c2ccccc2)CC(C)(C)N1C (stereo not shown) [Eucatropine] as the compound, how does the remaining at 0.5 h, 1 μM read?
Answer: 43.2%
